In PMC9217908, “Screening of commonly prescribed drugs for effects on the CAT1-mediated transport of L-arginine and arginine derivatives” (Amino Acids, 2022):
Like-named read-outs stand apart in the source and are kept apart here.

Key:
[1] = molecular target: T1, CAT1 (cationic amino acid transporter 1, CAT1/SLC7A1) (Homo sapiens, UniProt P30825); assay: cell-based; design: species or system HEK-CAT1 (HEK293 stably transfected); Inhibition of net CAT1-mediated [3H]-ADMA (1 uM) uptake, 2.5 min, scintillation counting, vector control subtracted; settings: HEK293, ADMA 1 uM as substrate; for inhibition at 20 µM: read-out: % Inhibition of ADMA uptake at 20 µM; for inhibition at 200 µM: read-out: % Inhibition of ADMA uptake at 200 µM
T1 construct: full-length human transporter stably transfected in HEK cells (HEK-CAT1); net uptake against HEK-VC vector control cells
T1 sequence (P30825 whole entry): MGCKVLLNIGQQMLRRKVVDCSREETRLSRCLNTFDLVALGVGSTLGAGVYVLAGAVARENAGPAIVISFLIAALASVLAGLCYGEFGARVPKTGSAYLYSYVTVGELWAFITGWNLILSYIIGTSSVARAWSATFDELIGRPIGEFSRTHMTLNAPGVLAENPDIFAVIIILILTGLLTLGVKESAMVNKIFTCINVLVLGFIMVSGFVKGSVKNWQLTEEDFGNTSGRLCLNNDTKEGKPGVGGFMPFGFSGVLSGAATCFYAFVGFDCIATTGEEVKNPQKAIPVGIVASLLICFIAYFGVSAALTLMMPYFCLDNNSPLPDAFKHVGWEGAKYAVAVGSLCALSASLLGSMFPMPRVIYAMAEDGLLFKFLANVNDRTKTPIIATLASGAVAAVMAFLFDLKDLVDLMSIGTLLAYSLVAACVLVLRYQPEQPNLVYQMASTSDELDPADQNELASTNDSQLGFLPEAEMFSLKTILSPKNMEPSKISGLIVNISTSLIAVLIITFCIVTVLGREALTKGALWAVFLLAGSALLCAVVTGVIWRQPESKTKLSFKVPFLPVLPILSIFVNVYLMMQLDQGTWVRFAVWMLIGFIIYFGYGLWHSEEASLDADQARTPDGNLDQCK
Outline: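 HEK cells expressing CAT1 and vector-control cells took up [^3H]-L-arginine for 5 min, or [^3H]-L-homoarginine or [^3H]-ADMA (1 μM) for 2.5 min, with or without drug at 20 or 200 µM. Net CAT1 uptake was CAT1 cells minus control cells, and inhibition (%) = 100 − V/V0×100. Negative values mean stimulation; n = 6–9.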

[2] = molecular target: T1, CAT1 (cationic amino acid transporter 1, CAT1/SLC7A1); assay: inhibition of [3H]-L-arginine uptake in HEK-CAT1 cells; assay type: cell-based
From the text: inhibition of [3H]-L-arginine uptake in HEK-CAT1 cells on CAT1 (cationic amino acid transporter 1, CAT1/SLC7A1) | verapamil inhibited CAT1-mediated uptake of L-arginine, L-homoarginine, and ADMA with IC50 values

[3] = molecular target: T1, CAT1 (cationic amino acid transporter 1, CAT1/SLC7A1); assay: cell-based; design: species or system HEK-CAT1 (HEK293 stably transfected); Inhibition of net CAT1-mediated [3H]-L-arginine (100 uM) uptake, 5 min, scintillation counting, vector control subtracted; settings: HEK293, L-arginine 100 uM as substrate; for inhibition at 20 µM: read-out: % Inhibition of L-arginine uptake at 20 µM; for inhibition at 200 µM: read-out: % Inhibition of L-arginine uptake at 200 µM
Outline: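 HEK-CAT1 and vector-control HEK-VC cells took up [3H]-L-arginine (100 μM) for 5 min, with or without drug at 20 or 200 µM; [3H]-L-homoarginine or [3H]-ADMA uptake ran 2.5 min. Net uptake is CAT1 minus VC cells, and inhibition (%) = 100 − (V/V0 × 100). Negative values mean stimulated uptake.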

[4] = molecular target: T1, CAT1 (cationic amino acid transporter 1, CAT1/SLC7A1); assay: inhibition of [3H]-L-homoarginine uptake in HEK-CAT1 cells; assay type: cell-based; settings: read-out: % inhibition at 20 μM
[5] = molecular target: T1, CAT1 (cationic amino acid transporter 1, CAT1/SLC7A1); assay: cell-based; design: species or system HEK-CAT1 (HEK293 stably transfected); Inhibition of net CAT1-mediated [3H]-L-homoarginine (1 uM) uptake, 2.5 min, scintillation counting, vector control subtracted; settings: HEK293, L-homoarginine 1 uM as substrate; for inhibition at 200 µM: read-out: % Inhibition of L-homoarginine uptake at 200 µM; for inhibition at 20 µM: read-out: % Inhibition of L-homoarginine uptake at 20 µM
Outline: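 HEK-CAT1 cells with HEK-VC vector controls; [3H]-L-homoarginine (1 μM) uptake over 2.5 min with or without test compound at 20 µM or 200 µM. Net CAT1 uptake (CAT1 minus VC) gives inhibition (%) = 100 – (V/V0 × 100). Negative values mean stimulated uptake; n = 6–9 from at least two independent experiments.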

[6] = molecular target: T1, CAT1 (cationic amino acid transporter 1, CAT1/SLC7A1); assay: inhibition of [3H]-L-arginine uptake in HEK-CAT1 cells, Lineweaver-Burk; assay type: cell-based; settings: substrate L-arginine; competitive

Structure (SMILES) | inhibition at 20 µM [1] | inhibition at 200 µM [1] | IC50 [2] | inhibition at 20 µM [3] | inhibition at 200 µM [3] | inhibition at 200 µM [5] | inhibition at 20 µM [5] | inhibition at 20 µM [4] | inhibition of [3H]-L-arginine uptake in HEK-CAT1 cells, Lineweaver-Burk [6]
O=C(OC1C[C@H]2CC[C@@H](C1)[N+]21CCCC1)C(O)(c1ccccc1)c1ccccc1 (some centres unmarked) [trospium] |  |  |  |  |  |  |  | 28.6% | 
CN(C)C(=N)NCCC[C@H](N)C(=O)O [ADMA] |  |  |  |  |  |  |  |  | competitive inhibition pattern for L-homoarginine and ADMA
N=C(N)NCCCC[C@H](N)C(=O)O [L-homoarginine] |  |  |  |  |  |  |  |  | competitive inhibition pattern for L-homoarginine and ADMA
CC(CN(C)C)CN1c2ccccc2CCc2ccccc21 (centres unmarked) [Trimipramine] | -26.1 ± 11.5% | -13.4 ± 3.7% |  | 1.3 ± 2.4% | 24.2 ± 4.5% | 34.1 ± 3.8% | 1.8 ± 4.5% |  | 
CCOc1nc2cccc(C(=O)O)c2n1Cc1ccc(-c2ccccc2-c2nnn[nH]2)cc1 [Candesartan] | -11.1 ± 0.9% | 8.1 ± 3.1% |  | 14.5 ± 2.4% | -18.8 ± 2.4% | -12.6 ± 3.8% | 12.6 ± 2.2% |  | 
CCc1nc(N)nc(N)c1-c1ccc(Cl)cc1 [Pyrimethamine] | -37.1 ± 7.2% | 23.4 ± 0.3% |  | 6.9 ± 9.6% | 31.2 ± 2.3% | 31.6 ± 2.7% | -25.8 ± 15.5% |  | 
CC(=O)N[C@@H](CS)C(=O)O [Acetylcysteine] | 3.2 ± 3.2% | -6.1 ± 4.3% |  | -6.6 ± 3.7% | 4.6 ± 3.3% | 7.5 ± 1.3% | -9 ± 1.5% |  | 
CCc1oc2ccccc2c1C(=O)c1cc(Br)c(O)c(Br)c1 [Benzbromarone] | -6.9 ± 4.6% | -13.2 ± 5.9% |  | -12.4 ± 6.1% | -31.3 ± 4.9% | -23.2 ± 1.6% | -10.8 ± 5.3% |  | 
Nc1ccc(S(=O)(=O)c2ccc(N)cc2)cc1 [Dapsone] | 13.4 ± 4.4% | -11.8 ± 3.7% |  | -8.6 ± 4.3% | -27.2 ± 4.2% | -24.7 ± 3.1% | -9.8 ± 4.4% |  | 
N[C@@H](Cc1ccc(O)c(O)c1)C(=O)O [Levodopa] | 28.1 ± 0.9% | -6 ± 0.5% |  | 8.1 ± 3.1% | 31.4 ± 0.6% | 30.4 ± 0.2% | 8.2 ± 3% |  | 
Nc1nc(NC2CC2)c2ncn([C@H]3C=C[C@@H](CO)C3)c2n1 [Abacavir] | -4.3 ± 2.2% | -78.1 ± 1.9% |  | -0.9 ± 1.81% | -12.4 ± 6% | -9.8 ± 1.7% | -3.1 ± 2% |  | 

Now from value to compound, other results behind:

inhibition at 20 µM [1] | inhibition at 200 µM [1] | IC50 [2] | inhibition at 20 µM [3] | inhibition at 200 µM [3] | inhibition at 200 µM [5] | inhibition at 20 µM [5] | Structure (SMILES) | inhibition at 20 µM [4] | inhibition of [3H]-L-arginine uptake in HEK-CAT1 cells, Lineweaver-Burk [6]
24.1 ± 2.3% | 44.2 ± 4.4% | 85.3 µM | 29.3 ± 1.1% | 27.5 ± 3.7% |  |  | COc1ccc(CCN(C)CCCC(C#N)(c2ccc(OC)c(OC)c2)C(C)C)cc1OC (centres unmarked) [verapamil] |  | 
36.9 ± 4.1% | 5.1 ± 2.3% |  | 9.8 ± 4.3% | 9.9 ± 3.1% | 9.7 ± 6.1% |  | COc1cc2nc(N3CCN(C(=O)c4ccco4)CC3)nc(N)c2cc1OC [prazosin] | 38.2% | 
-4.1 ± 6% | 9.9 ± 3.1% |  | -28.9 ± 4.8% | -15.8 ± 5.9% | -15.1 ± 1.6% | -28.5 ± 4.8% | C[C@@H](O)[C@H]1C(=O)N2C(C(=O)O)=C(S[C@@H]3CN[C@H](C(=O)Nc4cccc(C(=O)O)c4)C3)[C@H](C)[C@H]12 [Ertapenem] |  | 
-5.5 ± 4.2% |  |  | -8.1 ± 11.5% |  |  | -5.6 ± 7.8% | CO[C@H]1/C=C/O[C@@]2(C)Oc3c(C)c(O)c4c(O)c(c(/C=N/N5CCN(C)CC5)c(O)c4c3C2=O)NC(=O)/C(C)=C\C=C\[C@H](C)[C@H](O)[C@@H](C)[C@@H](O)[C@@H](C)[C@H](OC(C)=O)[C@@H]1C [Rifampicin] |  | 
20.2 ± 2.8% | -4.1 ± 2.8% |  | -2.5 ± 2.7% | 6.7 ± 1.4% | -6.6 ± 3.6% | -2.5 ± 2.7% | CC1(C)S[C@@H]2[C@H](NC(=O)[C@H](N)c3ccccc3)C(=O)N2[C@H]1C(=O)O [Ampicillin] |  | 
9 ± 2.6% | 24.2 ± 0.6% |  | 4.7 ± 7.9% | 5.2 ± 2.9% | 12.5 ± 1.7% | 5 ± 7.5% | COC(=O)[C@H]1[C@H]2C[C@@H]3c4[nH]c5cc(OC)ccc5c4CCN3C[C@H]2C[C@@H](OC(=O)c2cc(OC)c(OC)c(OC)c2)[C@@H]1OC [Reserpine] |  | 
6.4 ± 4.4% | 1.4 ± 9.6% |  | 23.9 ± 0.8% | 9.9 ± 8.2% | 10.9 ± 2.6% | 7 ± 4.2% | CN1CCC(=C2c3ccccc3CC(=O)c3sccc32)CC1 [Ketotifen] |  | 
-7.4 ± 4.4% | 3.6 ± 2.1% |  | -2.2 ± 5.9% | -39.2 ± 1.4% | -18.2 ± 1% | -9.6 ± 2.8% | CCOC(=O)C1=C(C)NC(C)=C(C(=O)OC)C1c1cccc(Cl)c1Cl (centres unmarked) [Felodipine] |  | 
-7.1 ± 2.9% | -11.5 ± 2.8% |  | 17.3 ± 3.5% | -9.8 ± 8.4% | -8.5 ± 5.9% | 16.8 ± 1.6% | CO/N=C(\C(=O)N[C@@H]1C(=O)N2C(C(=O)O)=C(COC(N)=O)CS[C@H]12)c1ccco1 [Cefuroxime] |  | 
-14.2 ± 1.2% | -11.8 ± 2.4% |  | 28.5 ± 3.7% | 69.6 ± 4.8% | 13.4 ± 1.1% | -10.3 ± 3.6% | C=CC[C@@H]1/C=C(\C)C[C@H](C)C[C@H](OC)[C@H]2O[C@@](O)(C(=O)C(=O)N3CCCC[C@H]3C(=O)O[C@H](/C(C)=C/[C@@H]3CC[C@@H](O)[C@H](OC)C3)[C@H](C)[C@@H](O)CC1=O)[C@H](C)C[C@@H]2OC [Tacrolimus] |  | 
